Measurements from US12714696B2, “Low dose fluralaner compositions for protection against parasitic invertebrate pest” (VIRBAC, priority 2019, dated 2026).

Legend:
[1] = test system: R. sanguineus ticks; assay: Acaricidal efficacy on dogs, oral 35 μg/kg study; type: in vivo; conditions: 48 h after the last of four doses of 35 μg/kg per day
Description: The second objective was to investigate the pharmacodynamics between the fluralaner plasmatic dose and the effectiveness against fleas. • IVP: Investigational Veterinary Product, is pure Fluralaner+DMSO (35 μg/kg on Days 0 to 3 (0.35 mL/kg)) • Control product is DMSO (0.35 mL/kg on Days 0 to 3)
On Days 0, 1, 2 and 3, all dogs assigned to group 2 received the Investigational Veterinary Product. On Days 0 to 3 all dogs in group 1 received the control product at a volume equal to the dogs in group 2. Dogs assigned to group 1 received the control product and served as Placebo controls. The quantity of Investigational Veterinary Product and control product administered was calculated according to the dog's individual body weight measured on Day −1.
Dogs were infested with approximately 100 (±8) viable, adult, C. felis fleas on Day −6 for randomisation purposes and on Days 1, 2 and 3 to assess efficacy. Fleas were removed and counted on Days −5, 2, 3 and 4 (24 hours±2 hours after infestation). Dogs were also infested with approximately 50 (±4) viable, adult, unfed R. sanguineus ticks on Day 4 to assess acaricidal efficacy. Ticks will be removed and counted on Day 5 (24 hours±2 hours after infestation).
The efficacy against ticks and fleas were calculated for the study groups at each assessment day according to the formulas given below. […]

[2] = cited from earlier work
[3] = plasma pK in dogs; fluralaner 56 mg/kg; cited from earlier work

Cc1cc(C2=NOC(c3cc(Cl)cc(Cl)c3)(C(F)(F)F)C2)ccc1C(=O)NCC(=O)NCC(F)(F)F (stereo not shown) [fluralaner, Fluralaner]
efficacy against ticks [1]: 40.4% | hepatic clearance ([2]; dogs and cats): low hepatic clearance | AUC in cats relative to dogs ([2]; topical and iv, 12.5 to 50 mg/kg dogs, 20 to 80 mg/kg cats): about half the AUC in dogs | interference between fluralaner and ivermectin [3]: absence of interference
